In paper PMC8050276, “Estradiol analogs attenuate autophagy, cell migration and invasion by direct and selective inhibition of TRPML1, independent of estrogen receptors” (Scientific Reports, 2021):
Several values for one entry are separate records, joined by “and”; a condition that tells them apart may be missing. Equal values may be shown once. Entries after “also recorded” stand apart in the source; their conditions may differ. Read-outs that look alike come from different tables or passages of the source.

Tests used:
hTRPML1∆NC-YFP [1] = biological target: T1, hTRPML1∆NC-YFP (Homo sapiens, UniProt Q9GZU1); format: cell-based; settings: for IC50: read-out: TRPML1 IC50, Fluo-4, 5 µM ML-SA1, Fig. 2a/4, Table S1
Procedure: (§1) To identify inhibitors of TRPML1 and TRPML3, the Spectrum Collection compound library (MS Discoveries; 2000 compounds) and additional 430 bioactive compounds were screened. To this end, fluorometric Ca^2+ influx assays were performed by using the calcium dye Fluo-4/AM (Invitrogen, Thermo Fisher Scientific, Waltham, MA, USA) and a custom-made fluorescence imaging plate reader built into a robotic liquid handling station (Freedom Evo 150, Tecan, Männedorf, Switzerland). […] Screening compounds dissolved in DMSO (10 mM) were prediluted in 150 mM NaCl, 20 mM HEPES, pH 7.4, to a concentration of 200 µM. For primary screens, HEK293 stably expressing plasma membrane-targeted TRPML1 or TRPML3 were trypsinized and resuspended in cell culture medium supplemented with 4 µM Fluo-4/AM. After incubation at 37 °C for 30 min, the cell suspension was briefly centrifuged resuspended in HBS, and dispensed into black pigmented, clear-bottom 384-well microwell plates (Greiner μClear, Frickenhausen, Germany). Plates were placed into the FLIPR and fluorescence signals (excitation 470 nm, emission 515 nm) were recorded with a Zyla 5.5 camera (Andor, Belfast, UK) and the μManager software like previously described. In a first video, compound libraries were successively added to the cells with the Tecan 96-tip multichannel arm to a final concentration of 20 µM to map unspecific effects like autofluorescence or toxicity. In a second step the agonist ML-SA1 was pipetted in each well and fluorescence signals were recorded for 10 min. Analyses were done by calculating fluorescence intensities for each well and background areas with ImageJ (National Institutes of Health, Bethesda, MD, USA). Finally, the background was subtracted and the fluorescence intensities were normalized to initial intensities (F/F0). Concentration response curves were generated by the same procedure but compounds were manually prediluted in 96-well plates containing HBS, now supplemented with 0.1% bovine serum albumin. Here data was fitted to a four-parameter Hill equation to obtain Imin, Imax, IC50), and the Hill coefficient n.

hTRPML1∆NC-YFP [2] = format: cell-based, human; settings: for TRPML1:TRPML2 fold selectivity / TRPML1:TRPML3 fold selectivity: ratio of Fluo-4 IC50 values; for TRPML isoform selectivity profile: TRPML1, 2, 3 and TPC2, Fluo-4
Procedure: as §1

hTRPML2-YFP = biological target: T2, hTRPML2-YFP (Homo sapiens, UniProt Q8IZK6); assay: Fluo-4 Ca2+ influx assay, HEK293 stably expressing hTRPML2-YFP, activated with ML-SA1; format: cell-based
T2 construct: expressed in transfected cells
T2 sequence (Q8IZK6 1-566): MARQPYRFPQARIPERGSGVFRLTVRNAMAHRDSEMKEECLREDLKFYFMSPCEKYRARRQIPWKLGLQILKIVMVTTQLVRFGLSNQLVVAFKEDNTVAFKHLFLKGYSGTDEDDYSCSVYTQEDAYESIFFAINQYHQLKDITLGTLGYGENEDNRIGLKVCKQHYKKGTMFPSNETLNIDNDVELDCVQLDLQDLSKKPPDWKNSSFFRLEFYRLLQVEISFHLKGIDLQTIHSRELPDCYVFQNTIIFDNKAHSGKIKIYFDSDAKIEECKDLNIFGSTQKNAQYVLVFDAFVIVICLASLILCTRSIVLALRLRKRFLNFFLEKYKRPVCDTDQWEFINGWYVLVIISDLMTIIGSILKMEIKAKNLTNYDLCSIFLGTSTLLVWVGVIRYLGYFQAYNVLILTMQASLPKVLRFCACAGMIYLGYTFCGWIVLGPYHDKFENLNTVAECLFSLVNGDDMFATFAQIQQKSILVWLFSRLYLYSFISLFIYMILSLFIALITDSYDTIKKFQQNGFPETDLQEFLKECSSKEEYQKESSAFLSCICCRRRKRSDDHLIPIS

hTRPML3-YFP = biological target: T3, hTRPML3-YFP (Homo sapiens, UniProt Q8TDD5); assay: Fluo-4 Ca2+ influx assay, HEK293 stably expressing hTRPML3-YFP, activated with ML-SA1; format: cell-based
T3 construct: expressed in transfected cells
Procedure: To identify inhibitors of TRPML1 and TRPML3, the Spectrum Collection compound library (MS Discoveries; 2000 compounds) and additional 430 bioactive compounds were screened. To this end, fluorometric Ca^2+ influx assays were performed by using the calcium dye Fluo-4/AM (Invitrogen, Thermo Fisher Scientific, Waltham, MA, USA) and a custom-made fluorescence imaging plate reader built into a robotic liquid handling station (Freedom Evo 150, Tecan, Männedorf, Switzerland). All measurements were done in a HEPES buffered solution (HBS), containing 132 mM NaCl, 6 mM KCl, 1 mM MgCl2, 1 mM CaCl2, 5.5 mM D-glucose, 10 mM HEPES, pH 7.4. Screening compounds dissolved in DMSO (10 mM) were prediluted in 150 mM NaCl, 20 mM HEPES, pH 7.4, to a concentration of 200 µM. For primary screens, HEK293 stably expressing plasma membrane-targeted TRPML1 or TRPML3 were trypsinized and resuspended in cell culture medium supplemented with 4 µM Fluo-4/AM. After incubation at 37 °C for 30 min, the cell suspension was briefly centrifuged resuspended in HBS, and dispensed into black pigmented, clear-bottom 384-well microwell plates (Greiner μClear, Frickenhausen, Germany). Plates were placed into the FLIPR and fluorescence signals (excitation 470 nm, emission 515 nm) were recorded with a Zyla 5.5 camera (Andor, Belfast, UK) and the μManager software like previously described. In a first video, compound libraries were successively added to the cells with the Tecan 96-tip multichannel arm to a final concentration of 20 µM to map unspecific effects like autofluorescence or toxicity. In a second step the agonist ML-SA1 was pipetted in each well and fluorescence signals were recorded for 10 min. Analyses were done by calculating fluorescence intensities for each well and background areas with ImageJ (National Institutes of Health, Bethesda, MD, USA). Finally, the background was subtracted and the fluorescence intensities were normalized to initial intensities (F/F0). Concentration response curves were generated by the same procedure but compounds were manually prediluted in 96-well plates containing HBS, now supplemented with 0.1% bovine serum albumin. Here data was fitted to a four-parameter Hill equation to obtain Imin, Imax, IC50), and the Hill coefficient n.

LC3 = assay: Autophagy assay, LC3 immunoblot in human fibroblasts (Fed/Hbss, with bafilomycin A1); format: cell-based; settings: Hbss starvation, with BafA1
Procedure: 5 × 10^4 wild-type human fibroblasts were seeded in a 12-well plate and treated overnight with DMSO or different TRPML1 inhibitors (EDME, PRU-10, PRU-12). The day after, cells were treated for 3 h in full media (Fed) or HBSS supplemented with 10 mM HEPES (nutrient starved) in presence of DMSO or different TRPML1 inhibitors (EDME, PRU-10, PRU-12). For autophagic flux experiments, cells were co-treated with 100 nM of bafilomycin A1 (Sigma).
Total cell lysates were prepared using TRIS HCl 10 mM pH 8.0 and 0.2% SDS supplemented with protein and phosphatase inhibitors (Sigma). Protein concentration was determined using the Bradford method. After SDS–polyacrylamide gel electrophoresis (PAGE) and immunoblotting, the protein recognized by the specific antibody was visualized by chemiluminescence methods (Luminata Crescendo Western HRP substrate, Millipore) using HRP-conjugated anti-rabbit or anti-mouse secondary antibodies (Cell Signalling). Images were acquired using Li-Cor Odyssey Fc Imaging System and densitometric quantification of unsaturated images was performed using ImageJ software (NIH). Uncropped and unprocessed western blot scans are provided as Fig. S1. The following primary antibodies were used: LC3 (Novus Cat. No. NB100-2220, 1:1000 in 5% milk), TFEB (Cell Signaling Cat. No. 4240, 1:1000 in 5% BSA) and β-actin (Santa Cruz Cat. No. Sc-47778, 1: 1000 in 5% BSA).

hTRPML1∆NC-YFP [3] = biological target: T1, hTRPML1∆NC-YFP; settings: 10 µM compound after 10 µM ML-SA1
Procedure: Single cell Ca^2+ imaging experiments were performed using Fura-2 as previously described. HEK293 cells stably expressing hTRPML1∆NC-YFP, hTRPML2-YFP, hTPPML3-YFP or hTPC2L11A/L12A-RFP (22, 24) were cultured at 37 °C with 5% of CO2 in Dulbecco’s modified Eagle medium (Thermo Fisher), supplemented with 10% fetal bovine serum, 100 U/mL penicillin, and 0.1 mg/mL streptomycin. Cells were plated onto poly-L-lysine (sigma)-coated glass coverslips and grown for 2–3 days. For Ca^2+ imaging experiments cells were loaded for 1 h at room temperature with Fura-2 AM (4.0 µM) and 0.005% (v/v) pluronic acid (both from Thermo Fisher) in HEPES-buffered solution (HBS) comprising 138 mM NaCl, 6 mM KCl, 2 mM MgCl2, 2 mM CaCl2, 10 mM HEPES, and 5.5 mM D-glucose (adjusted to pH 7.4 with NaOH). After loading, cells were washed with HBS and mounted in an imaging chamber. All recordings were performed in HBS. Ca^2+ imaging was performed using a Leica DMi8 live cell microscope. Fura-2 was excited at 340 nm/380 nm. Emitted fluorescence was captured using 515 nm long-pass filter. Compounds were pre diluted in DMSO and stored as 10 mM stock solutions at − 20 °C, not exceeding three months. Working solutions were prepared directly before using by dilution with HBS.

human ERα = biological target: T4, human ERα (Homo sapiens, UniProt P03372); assay: Yeast estrogen receptor assay (YES-assay), Saccharomyces cerevisiae transfected with human ERα, lacZ reporter; format: cell-based; settings: 0.01-100 µM, 48 h
T4 construct: host or cells: Saccharomyces cerevisiae
Procedure: The yeast estrogen receptor assay (YES-assay) was provided by Dr. J.P. Sumpter (Brunel University, Uxbridge, UK; Routledge & Sumpter, 1996) and was used to determine the relative transactivation activity of the human ERα in response to test substances as previously described. Briefly, Saccharomyces cerevisiae stably transfected with a human ERα construct and an estrogen responsive element fused to the reporter gene lacZ encoding for β-galactosidase were treated with the test substances for 48 h. The β-galactosidase enzymatic activity was measured in a colorimetric assay using the substrate chlorophenol red β-D-galactopyranoside (Roche Diagnostics, Mannheim Germany). Formation of chlorophenol red was measured at 540 nm. For the test, all compounds were diluted in DMSO. 17β-estradiol (10 nM; Sigma, Deisenhofen, Germany) served as positive control and DMSO was used as vehicle control. All compounds, were dose dependently tested in a concentration range of 0.01–100 µM, using technical quadruplicates and biological triplicates.

[4] = TRPML2 IC50, Fluo-4, 5 µM ML-SA1, Table S1
[5] = Fluo-4, 5 µM ML-SA1, Table S1, read-out: TRPML3 IC50

T3 sequence (Q8TDD5 whole entry): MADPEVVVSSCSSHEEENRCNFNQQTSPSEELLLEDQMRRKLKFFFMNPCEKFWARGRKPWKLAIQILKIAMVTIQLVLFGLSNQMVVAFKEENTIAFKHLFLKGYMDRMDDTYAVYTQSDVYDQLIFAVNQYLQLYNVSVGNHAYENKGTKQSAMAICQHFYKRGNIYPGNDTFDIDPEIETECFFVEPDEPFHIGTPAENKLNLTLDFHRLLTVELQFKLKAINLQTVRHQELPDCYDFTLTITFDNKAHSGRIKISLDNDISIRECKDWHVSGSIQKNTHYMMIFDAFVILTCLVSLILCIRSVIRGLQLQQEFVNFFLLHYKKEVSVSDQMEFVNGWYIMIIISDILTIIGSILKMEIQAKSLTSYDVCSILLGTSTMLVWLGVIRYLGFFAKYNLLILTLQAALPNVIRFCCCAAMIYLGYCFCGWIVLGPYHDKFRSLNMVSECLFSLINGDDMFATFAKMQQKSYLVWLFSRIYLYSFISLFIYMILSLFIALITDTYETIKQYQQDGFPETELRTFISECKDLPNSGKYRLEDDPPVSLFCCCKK
T4 sequence (P03372 whole entry): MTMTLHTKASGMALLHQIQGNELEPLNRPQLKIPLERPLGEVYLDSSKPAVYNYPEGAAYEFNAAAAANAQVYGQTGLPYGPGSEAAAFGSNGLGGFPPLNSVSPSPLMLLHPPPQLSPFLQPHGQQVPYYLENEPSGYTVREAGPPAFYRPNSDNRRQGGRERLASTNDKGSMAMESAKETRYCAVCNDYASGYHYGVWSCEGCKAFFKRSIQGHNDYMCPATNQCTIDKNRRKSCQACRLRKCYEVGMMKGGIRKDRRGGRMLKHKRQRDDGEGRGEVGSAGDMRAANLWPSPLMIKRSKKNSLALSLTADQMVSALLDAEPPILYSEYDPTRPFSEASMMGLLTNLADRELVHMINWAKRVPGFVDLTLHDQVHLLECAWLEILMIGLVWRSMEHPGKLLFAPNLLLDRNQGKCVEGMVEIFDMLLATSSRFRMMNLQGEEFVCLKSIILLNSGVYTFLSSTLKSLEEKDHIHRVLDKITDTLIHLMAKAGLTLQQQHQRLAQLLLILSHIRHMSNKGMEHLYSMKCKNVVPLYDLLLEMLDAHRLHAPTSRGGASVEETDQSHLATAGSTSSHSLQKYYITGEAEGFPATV
T1 sequence (Q9GZU1 whole entry): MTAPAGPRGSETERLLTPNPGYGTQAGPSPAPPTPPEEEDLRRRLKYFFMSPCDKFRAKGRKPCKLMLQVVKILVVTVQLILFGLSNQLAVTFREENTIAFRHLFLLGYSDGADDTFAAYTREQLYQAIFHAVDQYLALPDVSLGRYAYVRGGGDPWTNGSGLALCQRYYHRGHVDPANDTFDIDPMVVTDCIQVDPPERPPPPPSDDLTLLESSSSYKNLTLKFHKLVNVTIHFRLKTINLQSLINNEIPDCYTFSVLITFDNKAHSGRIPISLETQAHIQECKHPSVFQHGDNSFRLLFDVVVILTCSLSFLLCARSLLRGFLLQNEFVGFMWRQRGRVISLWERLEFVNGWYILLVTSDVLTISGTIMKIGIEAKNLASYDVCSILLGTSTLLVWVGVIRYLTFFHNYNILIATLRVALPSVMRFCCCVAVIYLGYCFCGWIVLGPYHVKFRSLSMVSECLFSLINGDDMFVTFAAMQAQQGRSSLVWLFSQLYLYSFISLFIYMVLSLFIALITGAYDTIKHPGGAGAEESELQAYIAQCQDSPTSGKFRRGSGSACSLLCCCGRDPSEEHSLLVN

Row | SMILES | IC50 (hTRPML1∆NC-YFP [1]) | TRPML1 versus TRPML3 selectivity (hTRPML1∆NC-YFP [2]; Fluo-4, TRPML1 vs TRPML3, 5 µM ML-SA1) | TRPML1:TRPML2 fold selectivity (hTRPML1∆NC-YFP [2]) | IC50 (hTRPML2-YFP; [4]) | IC50 (hTRPML3-YFP; [5]) | concentration showing efficacy on autophagy (LC3) (LC3) | effect on autophagy (LC3) at 10 nM or 1 µM (LC3) | activity in concentration-response measurements on TRPML1 (hTRPML1∆NC-YFP [1]; Fluo-4, 5 µM ML-SA1) | IC50 (hTRPML2-YFP; Fluo-4, 5 µM ML-SA1, Table S1, read-out: TRPML2 IC50) | IC50 (hTRPML3-YFP) | efficacy in blocking TRPML1, Fura-2 (hTRPML1∆NC-YFP [3]) | effect/efficacy at ERα (human ERα) | TRPML1:TRPML3 fold selectivity (hTRPML1∆NC-YFP [2]) | TRPML isoform selectivity profile (hTRPML1∆NC-YFP [2])
1 | C[C@]12CC[C@@H]3c4ccc(O)cc4CC[C@H]3[C@@H]1CC[C@@H]2O [Estradiol, 17β-estradiol] | 5.3 µM | stronger inhibitory effects on TRPML1 than on TRPML3 | 5.77 fold | 30.4 µM | > 50 µM | 10 µM | no effect | – | – | – | – | – | – | –
2 | COc1ccc2c(c1)CC[C@@H]1[C@@H]2CC[C@]2(C)[C@H](O)CC[C@@H]12 [PRU-2] | 13.8 µM and 14 µM | – | 2.67 fold | – | – | – | – | only poor activity | 37 µM | > 50 µM | exception | relatively low efficacy; also recorded: weakest effects | – | –
3 | C[C@]12CC[C@@H]3c4ccc(OC(F)F)cc4CC[C@H]3[C@@H]1CC[C@@H]2O [PRU-4] | 0.5 µM | – | 10.25 fold | 5.23 µM | 4.78 µM | – | – | – | – | – | – | – | 9.37 fold | –
4 | CCOc1ccc2c(c1)CC[C@@H]1[C@@H]2CC[C@]2(C)[C@@H](O)CC[C@@H]12 [PRU-5] | 0.8 µM | – | 4.45 fold | 3.38 µM | 14.9 µM | – | – | – | – | – | – | – | 19.58 fold | –
5 | CC(C)Oc1ccc2c(c1)CC[C@@H]1[C@@H]2CC[C@]2(C)[C@@H](O)CC[C@@H]12 [PRU-6] | 0.41 µM | – | 8.71 fold | 3.57 µM | 7.87 µM | – | – | – | – | – | – | – | 19.2 fold | –
6 | C=CCOc1ccc2c(c1)CC[C@@H]1[C@@H]2CC[C@]2(C)[C@@H](O)CC[C@@H]12 [PRU-7] | 0.73 µM | – | 3.62 fold | 2.64 µM | 15.2 µM | – | – | – | – | – | – | – | 20.82 fold | –
7 | C[C@]12CC[C@@H]3c4ccc(Oc5ccccc5)cc4CC[C@H]3[C@@H]1CC[C@@H]2O [PRU-8] | 0.72 µM | – | 21.28 fold | 15.3 µM | 38.6 µM | – | – | – | – | – | – | strong effect | 53.68 fold | further improved selectivity profile compared to EDME; also recorded: very good selectivity profile
8 | C[C@]12CC[C@@H]3c4ccc(OS(=O)(=O)C(F)(F)F)cc4CC[C@H]3[C@@H]1CC[C@@H]2O [PRU-9] | 0.17 µM | – | 14.88 fold | 2.53 µM | 5.96 µM | – | – | – | – | – | – | – | 35.06 fold | further improved selectivity profile compared to EDME
9 | C[C@]12CC[C@@H]3c4ccc(-c5ccccc5)cc4CC[C@H]3[C@@H]1CC[C@@H]2O [PRU-11] | 0.44 µM | – | 5.45 fold | 2.4 µM | 32.1 µM | – | – | – | – | – | – | – | 72.98 fold | –
